Source: patent US7321074B1, “Melanocortin-3 receptor deficient cells, non-human transgenic animals and methods of selecting compounds which regulate body weight” (Merck & Co., Inc., priority 1999, dated 2008)

Assay: Peripheral MTII administration: food consumption in MC-3R−/− and WT mice
Details: single intraperitoneal injection, 10 mg/kg, n=9
From the text: Food intake measurements—MC-3R^−/−, MC-3R^+/−, and WT mice were separated into individual microisolator cages at approximately one month of age. For studies involving regular mouse chow (Teklad 7012; 5% fat, 19% protein, and 5% of fiber; 3.75 grams/Kcal and 14.8% Kcal. from fat), pellet food was provided in wire cage tops containing food hoppers and food was weighed weekly. For studies involving a high fat diet (Teklad 97070; 33.5% fat, 27.4% protein, and 26.5% carbohydrates; 60% calories from fat), ground food was provided in a glass jar located in the cage and the jar containing the food was weighed either daily or weekly.
Peripheral MTII administration—For seven consecutive days, individually-housed 23-25-week-old male MC-3R^−/− (n=9) and WT (n=9) mice received an intraperitoneal (ip) injection of a sterile 0.9% NaCl vehicle solution approximately 30 min before the onset of the dark phase of the light cycle. At the same time on the eighth consecutive day of the study, mice received an ip injection of MTII at a dose of 10 mg/kg delivered in vehicle. Body and food (Teklad 7012) weights were measured and recorded daily approximately 15 min prior to injection.

MTII
reduction of food consumption over a 24-h period relative to a 2-day vehicle treatment baseline (male MC-3R−/− mice): 16.9±7.0 % reduction | reduction of food consumption over a 24-h period relative to a 2-day vehicle treatment baseline (male WT mice): 11.1±4.3 % reduction
